Values joined by “and” are separate entries in the source; they are usually repeats but may differ in a detail not shown here. Identical values can stand only once.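 How tested: cells in 96-well plates exposed to compound for 48 hours at five concentrations. GI50 is the concentration that inhibits growth by half. TGI marks complete inhibition of growth.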
How the values were obtained:
Experiment in all cases: NCI-60 cell line screen, 48 h
SF-268 CNS = system: SF-268 CNS
OVCAR-5 ovarian = system: OVCAR-5 ovarian
OVCAR-4 ovarian = system: OVCAR-4 ovarian
NCI-H460 lung = system: NCI-H460 lung
UACC-257 melanoma = system: UACC-257 melanoma
COLO 205 colon = system: COLO 205 colon
DU-145 prostate = system: DU-145 prostate
SK-MEL-5 melanoma = system: SK-MEL-5 melanoma
HS 578T breast = system: HS 578T breast
BT-549 breast = system: BT-549 breast

Nc1nc(N)c(N=O)c(Nc2ccc(Br)cc2)n1
TGI (SF-268 CNS): 57.1 µM | TGI (OVCAR-5 ovarian): > 100 µM | TGI (OVCAR-4 ovarian): > 100 µM | TGI (NCI-H460 lung): > 100 µM | TGI (UACC-257 melanoma): 77 µM | TGI (COLO 205 colon): 38.8 µM

CCC1=NC(C(F)(F)F)(C(F)(F)F)N=C(N2CCOCC2)O1
TGI (SF-268 CNS): > 100 µM | TGI (OVCAR-5 ovarian): > 100 µM | TGI (DU-145 prostate): > 100 µM | TGI (OVCAR-4 ovarian): > 100 µM | TGI (SK-MEL-5 melanoma): > 100 µM | TGI (NCI-H460 lung): > 100 µM | TGI (UACC-257 melanoma): > 100 µM | TGI (HS 578T breast): > 100 µM | TGI (COLO 205 colon): > 100 µM

CCOC(=O)C1(C(=O)OCC)COS(=O)OC1
TGI (DU-145 prostate): > 100 µM | TGI (OVCAR-4 ovarian): 42.6 µM | TGI (SK-MEL-5 melanoma): > 100 µM | TGI (NCI-H460 lung): > 100 µM | TGI (UACC-257 melanoma): > 100 µM | TGI (HS 578T breast): > 100 µM | TGI (COLO 205 colon): 54.5 µM

CC1CN=C(N(C(=O)Nc2ccc(F)c(Cl)c2)c2ccccc2)S1 (stereo not drawn)
TGI (SF-268 CNS): > 100 µM | TGI (OVCAR-5 ovarian): 76.3 µM | TGI (DU-145 prostate): > 100 µM | TGI (OVCAR-4 ovarian): > 100 µM | TGI (SK-MEL-5 melanoma): 30 µM | TGI (NCI-H460 lung): 84.1 µM | TGI (UACC-257 melanoma): 58.7 µM | TGI (HS 578T breast): > 100 µM | TGI (COLO 205 colon): 38.9 µM

CC(C(=O)N1C(=O)N(C(=O)C(C)C(O)c2ccccc2)C2CCCCC21)C(O)c1ccccc1 (stereo not drawn)
TGI (SF-268 CNS): > 100 µM | TGI (OVCAR-5 ovarian): > 100 µM | TGI (OVCAR-4 ovarian): > 100 µM | TGI (SK-MEL-5 melanoma): > 100 µM | TGI (NCI-H460 lung): > 100 µM | TGI (COLO 205 colon): > 100 µM

O=c1ccn(C2OC(CO)C(P(=O)(O)O)C2O)c(=O)[nH]1 (stereo not drawn)
TGI (SF-268 CNS): > 100 µM | TGI (BT-549 breast): > 100 µM | TGI (OVCAR-5 ovarian): > 100 µM | TGI (DU-145 prostate): > 100 µM | TGI (OVCAR-4 ovarian): > 100 µM | TGI (SK-MEL-5 melanoma): > 100 µM | TGI (NCI-H460 lung): > 100 µM | TGI (UACC-257 melanoma): > 100 µM | TGI (HS 578T breast): > 100 µM

COc1ccc(-c2c3c([nH]c(=S)c2C#N)CC(C)(C)CC3=O)cc1
TGI (SF-268 CNS): > 100 µM | TGI (BT-549 breast): > 100 µM | TGI (OVCAR-5 ovarian): > 100 µM | TGI (DU-145 prostate): > 100 µM | TGI (OVCAR-4 ovarian): > 100 µM | TGI (SK-MEL-5 melanoma): > 100 µM | TGI (NCI-H460 lung): > 100 µM | TGI (UACC-257 melanoma): > 100 µM | TGI (HS 578T breast): > 100 µM

CC[n+]1[b-](C(C)(C)C)n(/N=C/C(C)(C)C)[b-](C(C)(C)C)[n+]1CC
TGI (SF-268 CNS): > 100 µM | TGI (BT-549 breast): > 100 µM | TGI (OVCAR-5 ovarian): > 100 µM | TGI (OVCAR-4 ovarian): > 100 µM | TGI (SK-MEL-5 melanoma): > 100 µM | TGI (NCI-H460 lung): > 100 µM | TGI (UACC-257 melanoma): > 100 µM | TGI (HS 578T breast): > 100 µM | TGI (COLO 205 colon): > 100 µM

N=C(N)c1ccc(-c2ccc(-c3cccs3)s2)cc1
GI50 (SF-268 CNS): 1.87 µM | TGI (SF-268 CNS): 4.41 µM | GI50 (BT-549 breast): 3.77 µM | TGI (BT-549 breast): 14.5 µM | GI50 (OVCAR-5 ovarian): 1.17 µM | TGI (OVCAR-5 ovarian): 2.68 µM | GI50 (DU-145 prostate): 1.68 µM | TGI (DU-145 prostate): 3.14 µM | GI50 (OVCAR-4 ovarian): 1.71 µM | TGI (OVCAR-4 ovarian): 4.24 µM | GI50 (SK-MEL-5 melanoma): 1.6 µM | TGI (SK-MEL-5 melanoma): 2.99 µM | GI50 (UACC-257 melanoma): 1.72 µM | TGI (UACC-257 melanoma): 3.15 µM | GI50 (HS 578T breast): 2.99 µM | TGI (HS 578T breast): 9.62 µM

Cc1ccc([N+](=O)[O-])cc1N=NC(=O)NNc1cc([N+](=O)[O-])ccc1C
TGI (BT-549 breast): 52.1 µM | TGI (OVCAR-5 ovarian): > 100 µM | TGI (DU-145 prostate): > 100 µM | TGI (SK-MEL-5 melanoma): 34.9 µM | TGI (HS 578T breast): 55.6 µM | TGI (COLO 205 colon): > 100 µM

COC(=O)c1cc2c(cc1CC1Cc3cc4c(cc3C1)CCC4)CCC2
TGI (SF-268 CNS): > 100 µM | TGI (OVCAR-5 ovarian): > 100 µM | TGI (DU-145 prostate): > 100 µM | TGI (OVCAR-4 ovarian): > 100 µM | TGI (SK-MEL-5 melanoma): > 100 µM | TGI (NCI-H460 lung): > 100 µM | TGI (UACC-257 melanoma): 80.9 µM | TGI (HS 578T breast): > 100 µM | TGI (COLO 205 colon): > 100 µM

COc1cc2c(cc1OC)[C@H]1CN3CCC[C@H]3C=C1c1ccc(OC)c(O)c1-2
TGI (BT-549 breast): 0.206 µM | TGI (OVCAR-5 ovarian): 0.00431 µM and 0.0108 µM | TGI (DU-145 prostate): 0.162 µM | TGI (OVCAR-4 ovarian): 0.00362 µM | TGI (SK-MEL-5 melanoma): 0.00133 µM | TGI (NCI-H460 lung): 0.00509 µM and 0.0106 µM | TGI (UACC-257 melanoma): 0.00835 µM | TGI (HS 578T breast): 0.00677 µM | TGI (COLO 205 colon): 0.00119 µM

O=C(NC(COC(=O)C(Cc1ccccc1)NC(=O)c1ccccc1)Cc1ccccc1)c1ccccc1 (stereo not drawn)
TGI (SF-268 CNS): > 50 µM | TGI (OVCAR-5 ovarian): > 50 µM | TGI (OVCAR-4 ovarian): > 50 µM | TGI (NCI-H460 lung): > 50 µM | TGI (UACC-257 melanoma): > 50 µM | TGI (HS 578T breast): > 50 µM

C[C@@H](Cl)[C@H]1CCCN(Cc2ccc(Br)cc2)C1
TGI (SF-268 CNS): > 12.5 µM | TGI (OVCAR-5 ovarian): > 12.5 µM | TGI (DU-145 prostate): > 12.5 µM | TGI (OVCAR-4 ovarian): > 12.5 µM | TGI (SK-MEL-5 melanoma): > 12.5 µM | TGI (NCI-H460 lung): > 12.5 µM | TGI (UACC-257 melanoma): > 12.5 µM | TGI (HS 578T breast): > 12.5 µM | TGI (COLO 205 colon): > 12.5 µM

CSC(=Nc1ccccc1)N(c1ccccc1)c1nc(=[N+](C)C)ss1
TGI (SF-268 CNS): 21.6 µM | TGI (OVCAR-5 ovarian): 28.6 µM | TGI (OVCAR-4 ovarian): 21.5 µM | TGI (SK-MEL-5 melanoma): 5.15 µM | TGI (NCI-H460 lung): 18.1 µM | TGI (UACC-257 melanoma): 4.96 µM | TGI (COLO 205 colon): 3.88 µM

COc1ccc(S(=O)(=O)N2C(=O)CCC2C(=O)NN)cc1 (stereo not drawn)
TGI (BT-549 breast): > 100 µM | TGI (OVCAR-5 ovarian): > 100 µM | TGI (DU-145 prostate): > 100 µM | TGI (OVCAR-4 ovarian): > 100 µM | TGI (SK-MEL-5 melanoma): > 100 µM | TGI (NCI-H460 lung): > 100 µM | TGI (UACC-257 melanoma): > 100 µM | TGI (HS 578T breast): > 100 µM | TGI (COLO 205 colon): > 100 µM

CC(C)(C)OC(=O)NCCC(N)=S
TGI (SF-268 CNS): > 100 µM | TGI (BT-549 breast): > 100 µM | TGI (OVCAR-5 ovarian): > 100 µM | TGI (DU-145 prostate): > 100 µM | TGI (SK-MEL-5 melanoma): > 100 µM | TGI (NCI-H460 lung): > 100 µM | TGI (UACC-257 melanoma): > 100 µM | TGI (HS 578T breast): > 100 µM | TGI (COLO 205 colon): > 100 µM

O=C(O)c1cc(-c2ccc3c(O)c(O)ccc3c2)ccc1O
TGI (SF-268 CNS): > 75 µM | TGI (OVCAR-5 ovarian): 26.2 µM | TGI (DU-145 prostate): > 75 µM | TGI (OVCAR-4 ovarian): 27 µM | TGI (SK-MEL-5 melanoma): > 75 µM | TGI (NCI-H460 lung): > 7.5 µM | TGI (UACC-257 melanoma): > 75 µM | TGI (HS 578T breast): > 75 µM | TGI (COLO 205 colon): > 75 µM

CC(=O)Oc1cc(C(F)(F)F)ccc1C(=O)OC1(C)OC(=O)c2ccc(C(F)(F)F)cc2O1 (stereo not drawn)
TGI (SF-268 CNS): > 100 µM | TGI (BT-549 breast): > 100 µM | TGI (OVCAR-5 ovarian): > 100 µM | TGI (DU-145 prostate): > 100 µM | TGI (OVCAR-4 ovarian): > 100 µM | TGI (NCI-H460 lung): > 100 µM | TGI (UACC-257 melanoma): > 100 µM | TGI (COLO 205 colon): > 100 µM

C=C1c2cc3c(cc2CC12Cc1cc4c(cc1C2=O)CCC4)CCC3 (stereo not drawn)
TGI (SF-268 CNS): > 100 µM | TGI (OVCAR-5 ovarian): > 100 µM | TGI (DU-145 prostate): > 100 µM | TGI (OVCAR-4 ovarian): > 100 µM | TGI (SK-MEL-5 melanoma): > 100 µM | TGI (NCI-H460 lung): > 100 µM | TGI (UACC-257 melanoma): > 100 µM | TGI (HS 578T breast): > 100 µM

C=Cc1ccc(C)[n+](C[Si](C)(C)O[Si](C)(C)C[n+]2cc(C=C)ccc2C)c1
TGI (SF-268 CNS): > 100 µM | TGI (OVCAR-5 ovarian): > 100 µM | TGI (OVCAR-4 ovarian): > 100 µM | TGI (SK-MEL-5 melanoma): > 100 µM | TGI (NCI-H460 lung): > 100 µM | TGI (UACC-257 melanoma): > 100 µM | TGI (COLO 205 colon): > 100 µM

CCC1=CC2CN3Cn4c(c(COCc5c6n(c7ccccc57)CN5CC7C=C(CC)C5C6(C(=O)OC)C7)c5ccccc54)C(C(=O)OC)(C2)C13
TGI (SF-268 CNS): > 100 µM | TGI (OVCAR-4 ovarian): > 100 µM | TGI (SK-MEL-5 melanoma): > 100 µM | TGI (NCI-H460 lung): > 100 µM | TGI (UACC-257 melanoma): > 100 µM | TGI (COLO 205 colon): > 100 µM

CC1=C2C(=C[C@H]3[C@]4(C)CCCC(C)(C)[C@H]4CC[C@]34O[C@H]24)OC1=O
TGI (SF-268 CNS): > 100 µM | TGI (BT-549 breast): > 100 µM | TGI (OVCAR-5 ovarian): > 100 µM | TGI (DU-145 prostate): > 100 µM | TGI (OVCAR-4 ovarian): > 100 µM | TGI (SK-MEL-5 melanoma): > 100 µM | TGI (NCI-H460 lung): > 100 µM | TGI (UACC-257 melanoma): > 100 µM | TGI (COLO 205 colon): > 100 µM

C(=Nc1ccc(-c2nc3ccccc3o2)cc1)c1ccco1
TGI (BT-549 breast): > 100 µM | TGI (OVCAR-5 ovarian): > 100 µM | TGI (DU-145 prostate): > 100 µM | TGI (OVCAR-4 ovarian): > 100 µM | TGI (SK-MEL-5 melanoma): > 100 µM | TGI (UACC-257 melanoma): > 100 µM | TGI (COLO 205 colon): > 100 µM
